Where two headings read alike, the source gives them in different places. Square brackets hold non-standard residues; d marks the D form. Peptide text beside a SMILES is read from it. * marks the point of attachment. Gly(N-(2R-Ph-propyl)) = C[C@@H](CNCC(=O)O)c1ccccc1; Piperidin1yl(4-NH2,4-COOH) = NC1(C(=O)O)CCN(*)CC1; dPhLac = O=C(O)[C@H](O)Cc1ccccc1; X4 = COC(=O)NC1CCN(*)CC1
Legend:
[1] = Autonomous activity test in mice; conditions: male, ICR, mouse, in vivo, iv
ICR mice [2] = test: Acetic acid writhing test in mice; assay type: in vivo; conditions: Mus musculus; single intravenous injection, male ICR mice; read-out: Acetic acid writhing in mice ED50
ICR mice [3] = test: Sedation safety window; conditions: sedation side effect ED50 (autonomic activity test)/efficacy ED50 (acetic acid writhing test)
[4] = biological target: κ-opioid receptor (Kappa) (Homo sapiens (Human), UniProt P41145); test: In vitro functional assay, HTRF cAMP-Gi in CHO-K1-OPRK1 cells; assay type: cell-based
δ receptor = δ receptor (Homo sapiens (Human), UniProt P41143); test: Competitive delta receptor binding assay (3H-DADLE)
μ receptor = μ receptor (Homo sapiens (Human), UniProt P35372); test: μ receptor affinity assay (3H-DAMGO); assay type: binding
κ receptor = κ receptor (Homo sapiens (Human), UniProt P41145); test: Competitive Kappa receptor binding assay (3H-U69593)
[5] = PK and blood-brain barrier permeability in mice; assay type: in vivo; conditions: male ICR mice, intravenous 1 mg/kg; for B/P (brain-to-blood ratio): blood and brain 5 min after administration; for AUC(0-inf) / Vd / clearance / half-life / Cmax: mouse, plasma; for half-life: read-out: t½ (converted)
Description: The compounds of the present disclosure were investigated for pharmacokinetic characteristics and blood-brain barrier permeability in mice.
Healthy male ICR mice were randomly grouped, 6 animals per group. For each test compound, 3 groups of animals were used. The first group of animals was used for collecting blood and brain 5 min after the administration, and the second group of animals and the third group of animals were used for cross blood collection at subsequent time points; each test compound was intravenously administered (1 mg/kg) to corresponding groups of mice, and blood sampling via submaxillary veins of the mice was carried out at different time points. Drug contents in plasma and brain tissues at different time points were measured by an LC-MS/MS method, the brain-to-blood ratio B/P was calculated by using EXCEL software, and pharmacokinetic parameters were calculated by using DAS3.0 software.

[6] = read-out: In vitro agonistic effects on k-opioid receptors EC50

Row | Compound | ED50 at 30 min [1] [mg/kg] | ED50 (ICR mice [2]) [mg/kg] | Safety window (ICR mice [3]) | EC50 [4] [nM] | Ki (δ receptor) [nM] | Ki (μ receptor) [nM] | Ki (κ receptor) [nM] | B/P (brain-to-blood ratio) [5] | AUC(0-inf) [5] [ng·h/mL] | Vd [5] [L/kg] | clearance [5] [mL/min/kg] | half-life [5] [min] | Cmax [5] [ng/mL] | EC50 [4, 6] [nM] | Ki (δ receptor; read-out: δ receptor Ki) [nM] | Ki (μ receptor; read-out: μ receptor Ki) [nM] | Ki (κ receptor; read-out: κ receptor Ki) [nM]
1 | CC(C)C[C@@H](NC(=O)[C@@H](Cc1ccccc1)NC(=O)CNC[C@H](C)c1ccccc1)C(=O)N[C@H](CCCCN)C(=O)N1CCC(N)(C(=O)O)CC1 [Comparative Example 1B, reference compound] (H-[Gly(N-(2R-Ph-propyl))][dF][dL][dK]-{Piperidin1yl(4-NH2,4-COOH)}) | 0.59 | 0.25 | 2.36 | – | – | – | – | – | – | – | – | – | – | – | – | – | –
2 | CC(C)C[C@@H](NC(=O)[C@@H](Cc1ccccc1)NC(=O)C[C@@H](N)c1ccccc1)C(=O)N[C@H](CCCCN)C(=O)N1CCC(N)(C(=O)O)CC1 [Compound 4-0, 4-amino-1-[(2R)-6-amino-2-[(2R)-2-[(2R)-2-((3R)-3-amino-3-phenylpropionylamino)-3-phenylpropionylamino]-4-methylpentanoylamino]hexanoyl]piperidine-4-carboxylic acid] | 7.34 | 1.14 | 6.44 | 3.62 | > 1000 | > 1000 | 2.8 | – | – | – | – | – | – | – | – | – | –
3 | CC(C)C[C@@H](NC(=O)[C@@H](Cc1ccccc1)NC(=O)N(C)C(CN)c1ccccc1)C(=O)N[C@H](CCCCN)C(=O)N1CCS(=N)(=O)CC1 (stereo partly drawn) [Compound 10] | – | – | – | 1.1 | > 1000 | > 1000 | 0.86 | 0.007 | 4010 | 0.29 | 4.17 | 49.2 | 3220 | – | – | – | –
4 | COC(=O)NC1CCN(C(=O)[C@@H](CCCCN)NC(=O)[C@@H](CC(C)C)NC(=O)[C@@H](Cc2ccccc2)NC(=O)[C@H](O)Cc2ccccc2)CC1 [Compound 11] (H-[dPhLac][dF][dL][dK]-X4) | 9.6 | 1.82 | 5.27 | 5.1 | > 1000 | > 1000 | 0.94 | – | – | – | – | – | – | – | – | – | –
5 | COC(=O)C1(N)CCN(C(=O)[C@@H](CCCCN)NC(=O)[C@@H](CC(C)C)NC(=O)[C@@H](Cc2ccccc2)NC(=O)N(CCN)Cc2ccccc2)CC1 [Compound 13-2, methyl 4-amino-1-[(2R)-6-amino-2-[(2R)-2-[(2R)-2-{[2-aminoethyl(benzyl)carbamoyl]amino}-3-phenylpropionylamino]-4-methylpentanoylamino]hexanoyl]piperidine-4-carboxylate] | 2.75 | 0.17 | 16.18 | 0.13 | > 1000 | > 1000 | 0.13 | BQL** | 1690 | 0.63 | 10 | 43.2 | 2930 | – | – | – | –
6 | CC(C)C[C@@H](NC(=O)[C@@H](Cc1ccccc1)NC(=O)N(CCN)Cc1ccccc1)C(=O)N[C@H](CCCCN)C(=O)N1CCS(=O)(=O)CC1 [Compound 21] | 1.42 | 0.5 | 2.82 | 0.68 | > 1000 | > 1000 | 0.33 | 0.010 | 2670 | 0.63 | 6.33 | 69 | 3460 | – | – | – | –
7 | CC(C)C[C@@H](NC(=O)[C@@H](Cc1ccccc1)NC(=O)N(Cc1ccccc1)C1CCNC1)C(=O)N[C@H](CCCCN)C(=O)N1CCC(N)(C(=O)O)CC1 (stereo partly drawn) [Compound 27] | 4.59 | 0.88 | 5.22 | 0.87 | > 1000 | > 1000 | 0.88 | 0.010 | 1160 | 0.63 | 14.7 | 30 | 2320 | – | – | – | –
8 | CC(C)C[C@@H](NC(=O)[C@@H](Cc1ccccc1)NC(=O)N(CCN)Cc1ccccc1)C(=O)N[C@H](CCCCN)C(=O)N1CCC2(CC1)NC(=O)NC2=O [Compound 29] | 1.35 | 0.41 | 3.28 | 0.058 | > 1000 | > 1000 | 0.63 | 0.010 | 3340 | 0.32 | 5.17 | 44.4 | 4710 | – | – | – | –
9 | CC(C)C[C@@H](NC(=O)[C@@H](Cc1ccccc1)NC(=O)N(C)C(CN)c1ccccc1)C(=O)N[C@H](CCCCN)C(=O)N1CCNCC1 (stereo partly drawn) [Compound 38] | – | – | – | 0.54 | > 1000 | > 1000 | 0.17 | – | – | – | – | – | – | – | – | – | –
10 | CC(C)C[C@@H](NC(=O)[C@@H](Cc1ccccc1)NC(=O)N(CCN)Cc1ccccc1)C(=O)N[C@H](CCCCN)C(=O)N1CCOCC1 [Compound 39] | – | – | – | 0.35 | > 1000 | > 1000 | 0.27 | – | – | – | – | – | – | – | – | – | –
11 | CC(C)C[C@@H](NC(=O)[C@@H](Cc1ccccc1)NC(=O)N(CCN)Cc1ccccc1)C(=O)N[C@H](CCCCN)C(=O)N1CCNCC1 [Compound 40] | – | – | – | 0.13 | > 1000 | > 1000 | 0.58 | – | – | – | – | – | – | – | – | – | –
12 | COC(=O)NC1CCN(C(=O)[C@@H](C)NC(=O)[C@@H](CC(C)C)NC(=O)[C@@H](Cc2ccccc2)NC(=O)N(CCN)Cc2ccccc2)CC1 [Compound 42] | – | – | – | 0.46 | > 1000 | > 1000 | 0.47 | – | – | – | – | – | – | – | – | – | –
13 | CC(=O)N(CCCN)C1CCN(C(=O)[C@@H](C)CC(=O)[C@@H](CC(C)C)NC(=O)[C@H](CC(=O)N(CCN)Cc2ccccc2)Cc2ccccc2)CC1 [Compound 44] | – | – | – | – | – | – | – | – | – | – | – | – | – | 0.09 | > 1000 | > 1000 | 0.55
14 | CC(=O)NC1CCN(C(=O)[C@@H](CCCCN)NC(=O)[C@@H](CC(C)C)NC(=O)[C@@H](Cc2ccccc2)NC(=O)N(CCN)Cc2ccccc2)CC1 [Compound 45] | – | – | – | 0.16 | > 1000 | > 1000 | 0.52 | – | – | – | – | – | – | – | – | – | –
15 | COC(=O)N1CCN(C(=O)[C@@H](CCCCN)NC(=O)[C@@H](CC(C)C)NC(=O)[C@@H](Cc2ccccc2)NC(=O)N(CCN)Cc2ccccc2)CC1 [Compound 46] | – | – | – | 0.22 | > 1000 | > 1000 | 0.29 | – | – | – | – | – | – | – | – | – | –
16 | CC(=O)N1CCN(C(=O)[C@@H](CCCCN)NC(=O)[C@@H](CC(C)C)NC(=O)[C@@H](Cc2ccccc2)NC(=O)N(CCN)Cc2ccccc2)CC1 [Compound 47] | – | – | – | 0.24 | > 1000 | > 1000 | 0.49 | – | – | – | – | – | – | – | – | – | –
17 | CC(C)C[C@@H](NC(=O)[C@@H](Cc1ccccc1)NC(=O)N(CCN)CC1CC1)C(=O)N[C@H](CCCCN)C(=O)N1CCC(N)(C(=O)O)CC1 [Compound 48] | – | – | – | 12 | > 1000 | > 1000 | 3.79 | – | – | – | – | – | – | – | – | – | –
18 | CC(C)C[C@@H](NC(=O)[C@@H](Cc1ccccc1)NC(=O)N(CCN)Cc1ccc(F)cc1)C(=O)C[C@H](CCCCN)C(=O)N1CCC(N)(C(=O)O)CC1 [Compound 50] | – | – | – | – | – | – | – | – | – | – | – | – | – | 0.43 | > 1000 | > 1000 | 0.27
19 | (2R)-2-[(2R)-2-{[(2-amino-1-phenylethyl)(methyl)carbamoyl)amino}-3-phenylpropionylamino]-N-[(2R)-6-amino-1-{4-[(methylcarbamoyl)amino]piperidin-1-yl}-1-oxohexyl-2-yl]-4-methylpentanamide [Compound 8] | – | – | – | – | – | – | – | – | – | – | – | – | – | 0.9 | > 1000 | > 1000 | 0.09

Reference: US20250230129A1, “POLYAMIDE COMPOUNDS, METHOD FOR PREPARING SAME, AND MEDICAL USE THEREOF” (priority 2022, published 2025)
